Measurements: ChEMBL document CHEMBL4177762, “Combined Approach of Backbone Amide Linking and On-Resin N-Methylation for the Synthesis of Bioactive and Metabolically Stable Peptides” (J Med Chem, 2018)
Values after ≈ are worked out from the molar mass of the structure shown. Values belong to the compound of their own block, whether it stands above or below them. Active and inactive are the calls of the source. The calls are words filed in the database; no cut-off is given here. Non-standard residues stand in square brackets, D forms with d. Residues, ends and D or L forms follow the SMILES beside them. *: point of attachment. NH(2-(1-naphthyl)ethyl) = c1ccc2c(CCN*)cccc2c1; NMeF = CN[C@@H](Cc1ccccc1)C(=O)O; NMeL = CN[C@@H](CC(C)C)C(=O)O; NHPhenethyl = c1ccc(CCN*)cc1; NMeV = CN[C@H](C(=O)O)C(C)C; NMeC = CN[C@@H](CS)C(=O)O; NMeA = CN[C@@H](C)C(=O)O

How the values were obtained:
Type in all cases: functional, organism-based
[1] = system: Trypanosoma brucei rhodesiense; experiment: Antiprotozoal activity against trypomastigote stage of Trypanosoma brucei rhodesiense STIB900 after 72 hrs by Alamar Blue assay; settings: for IC50: STIB900, 72 h
[2] = system: Plasmodium falciparum; experiment: Antiprotozoal activity against IEF stage of Plasmodium falciparum NF54 after 48 hrs by [3H]-hypoxanthine incorporation assay
[3] = system: Staphylococcus aureus; experiment: Antibacterial activity against Staphylococcus aureus ATCC 29213 assessed as growth inhibition up to 128 ug/ml
[4] = system: Staphylococcus aureus; experiment: Antibacterial activity against methicillin-resistant Staphylococcus aureus ATCC 43300 assessed as growth inhibition up to 128 ug/ml
[5] = system: Enterococcus faecalis; experiment: Antibacterial activity against Enterococcus faecalis ATCC 29212 assessed as growth inhibition up to 128 ug/ml
[6] = system: Micrococcus luteus; experiment: Antibacterial activity against Micrococcus luteus ATCC 9341 assessed as growth inhibition up to 128 ug/ml
[7] = system: Escherichia coli; experiment: Antibacterial activity against Escherichia coli ATCC 25922 assessed as growth inhibition up to 128 ug/ml
[8] = system: Pseudomonas aeruginosa; experiment: Antibacterial activity against Pseudomonas aeruginosa ATCC 27853 assessed as growth inhibition up to 128 ug/ml

Compound: CN[C@@H](Cc1ccccc1)C(=O)N(C)[C@@H](Cc1ccccc1)C(=O)N(C)[C@@H](Cc1ccccc1)C(=O)N(C)[C@@H](Cc1ccccc1)C(=O)N(C)[C@@H](Cc1ccccc1)C(=O)N(C)[C@@H](Cc1ccccc1)C(=O)NCCc1ccccc1 (H-[NMeF][NMeF][NMeF][NMeF][NMeF][NMeF]-NHPhenethyl)
Activity [1]: Active

IC50 [1]: 1.4 to 2.1 µg/mL (≈ 2.22 to 3.33 µM)
Compound: CN[C@H](CC(C)C)C(=O)N(C)[C@H](CC(C)C)C(=O)N(C)[C@H](CC(C)C)C(=O)N(C)[C@H](CC(C)C)C(=O)NCCc1ccccc1

IC50 [1]: 7.5 µg/mL (≈ 11.2 µM)
Compound: CN[C@@H](CC(C)C)C(=O)N(C)[C@@H](CC(C)C)C(=O)N(C)[C@@H](CC(C)C)C(=O)N(C)[C@@H](CS)C(=O)NCCc1cccc2ccccc12 (H-[NMeL][NMeL][NMeL][NMeC]-{NH(2-(1-naphthyl)ethyl)})

Compound: CN[C@H](C(=O)N(C)[C@H](C(=O)N(C)[C@H](C(=O)N(C)[C@H](C(=O)N(C)[C@H](C(=O)N(C)[C@H](C(=O)N(C)[C@H](C(=O)NCCc1ccccc1)C(C)C)C(C)C)C(C)C)C(C)C)C(C)C)C(C)C)C(C)C (H-[NMeV][NMeV][NMeV][NMeV][NMeV][NMeV][NMeV]-NHPhenethyl)
Activity [1]: Active

IC50 [1]: 31.6 µg/mL (≈ 41.9 µM)
Compound: CCC(C)[C@H]1NC(=O)[C@@H](C(C)C)NC(=O)[C@H]([C@@H](C)O)NC(=O)[C@H](Cc2c[nH]c3ccccc23)NC(=O)[C@@H](NC(C)=O)[C@@H](C)OC(=O)[C@H](CC(C)C)NC1=O (some centres not stated)

Compound: CN[C@@H](CC(C)C)C(=O)N(C)[C@@H](CC(C)C)C(=O)N(C)[C@@H](CC(C)C)C(=O)N(C)[C@@H](CC(C)C)C(=O)N(C)[C@@H](CC(C)C)C(=O)N(C)[C@@H](CC(C)C)C(=O)N(C)[C@@H](CC(C)C)C(=O)NCCc1ccccc1 (H-[NMeL][NMeL][NMeL][NMeL][NMeL][NMeL][NMeL]-NHPhenethyl)
Activity [1]: Active

IC50 [1]: 1.4 to 2.1 µg/mL (≈ 2.22 to 3.33 µM)
Compound: CN[C@@H](CC(C)C)C(=O)N(C)[C@H](CC(C)C)C(=O)N(C)[C@@H](CC(C)C)C(=O)N(C)[C@@H](CC(C)C)C(=O)NCCc1ccccc1

IC50 [2]: 31 µg/mL (≈ 52.7 µM)
Compound: CN[C@@H](CC(C)C)C(=O)N(C)[C@@H](CC(C)C)C(=O)N(C)[C@@H](CC(C)C)C(=O)N(C)[C@@H](C)C(=O)NCCc1ccccc1 (H-[NMeL][NMeL][NMeL][NMeA]-NHPhenethyl)

IC50 [2]: 0.14 µg/mL (≈ 0.159 µM)
Compound: CN[C@@H](Cc1ccccc1)C(=O)N[C@H](C(=O)N(C)[C@H](C(=O)N(C)[C@H](C(=O)N(C)[C@H](C(=O)N(C)[C@@H](Cc1ccccc1)C(=O)NCCc1ccccc1)C(C)C)C(C)C)C(C)C)C(C)C (H-[NMeF]V[NMeV][NMeV][NMeV][NMeF]-NHPhenethyl)

Compound: CN[C@@H](CC(C)C)C(=O)N(C)[C@@H](CC(C)C)C(=O)N(C)[C@@H](CC(C)C)C(=O)N(C)[C@@H](CC(C)C)C(=O)N(C)[C@@H](CC(C)C)C(=O)NCCc1ccccc1
Activity [1]: Active

IC50 [1]: 1 µg/mL (≈ 1.47 µM)
Compound: CN[C@@H](CC(C)C)C(=O)N(C)[C@@H](CC(C)C)C(=O)N(C)[C@@H](CC(C)C)C(=O)N(C)[C@@H](CC(C)C)C(=O)NCCc1cccc2ccccc12 (H-[NMeL][NMeL][NMeL][NMeL]-{NH(2-(1-naphthyl)ethyl)})

IC50 [1]: 5.6 µg/mL (≈ 9.03 µM)
Compound: CN[C@@H](CC(C)C)C(=O)N(C)[C@@H](CC(C)C)C(=O)N(C)[C@@H](CC(C)C)C(=O)N(C)[C@@H](CS)C(=O)NCCc1ccccc1 (H-[NMeL][NMeL][NMeL][NMeC]-NHPhenethyl)

Compound: CN[C@@H](CC(C)C)C(=O)N(C)[C@@H](CC(C)C)C(=O)N(C)[C@@H](CC(C)C)C(=O)N(C)[C@@H](CC(C)C)C(=O)N(C)[C@@H](CC(C)C)C(=O)N(C)[C@@H](CC(C)C)C(=O)NCCc1ccccc1 (H-[NMeL][NMeL][NMeL][NMeL][NMeL][NMeL]-NHPhenethyl)
Activity [1]: Active
growth inhibition (GI) [3]: inactive
growth inhibition (GI) [4]: inactive
growth inhibition (GI) [5]: inactive
growth inhibition (GI) [6]: inactive
growth inhibition (GI) [7]: inactive
growth inhibition (GI) [8]: inactive

IC50 [1]: 1.4 to 2.1 µg/mL (≈ 1.85 to 2.77 µM)
Compound: CN[C@@H](CC(C)C)C(=O)N(C)[C@@H](CC(C)C)C(=O)N(C)[C@@H](CC(C)C)C(=O)N(C)[C@@H](CC(C)C)C(=O)N(C)[C@H](CC(C)C)C(=O)NCCc1ccccc1

IC50 [1]: 1.4 to 2.1 µg/mL (≈ 2.44 to 3.66 µM)
Compound: CC(C)C[C@@H](N)C(=O)N[C@H](CC(C)C)C(=O)N[C@H](CC(C)C)C(=O)N[C@H](CC(C)C)C(=O)NCCc1ccccc1

Compound: CN[C@H](C(=O)N(C)[C@H](C(=O)N(C)[C@H](C(=O)N(C)[C@H](C(=O)N(C)[C@H](C(=O)NCCc1ccccc1)C(C)C)C(C)C)C(C)C)C(C)C)C(C)C (H-[NMeV][NMeV][NMeV][NMeV][NMeV]-NHPhenethyl)
Activity [1]: Active

IC50 [2]: 1.85 µg/mL (≈ 3.15 µM)
Compound: CN[C@@H](C)C(=O)N(C)[C@@H](CC(C)C)C(=O)N(C)[C@@H](CC(C)C)C(=O)N(C)[C@@H](CC(C)C)C(=O)NCCc1ccccc1 (H-[NMeA][NMeL][NMeL][NMeL]-NHPhenethyl)

Compound: CN[C@@H](Cc1ccccc1)C(=O)N(C)[C@@H](Cc1ccccc1)C(=O)N(C)[C@@H](Cc1ccccc1)C(=O)N(C)[C@@H](Cc1ccccc1)C(=O)NCCc1ccccc1 (H-[NMeF][NMeF][NMeF][NMeF]-NHPhenethyl)
Activity [1]: Active

IC50 [1]: 1.4 to 2.1 µg/mL (≈ 2.22 to 3.33 µM)
Compound: CN[C@H](CC(C)C)C(=O)N(C)[C@@H](CC(C)C)C(=O)N(C)[C@@H](CC(C)C)C(=O)N(C)[C@@H](CC(C)C)C(=O)NCCc1ccccc1

Compound: CN[C@H](C(=O)N(C)[C@H](C(=O)N(C)[C@H](C(=O)N(C)[C@H](C(=O)N(C)[C@H](C(=O)N(C)[C@@H](Cc1ccccc1)C(=O)NCCc1ccccc1)C(C)C)C(C)C)C(C)C)C(C)C)C(C)C (H-[NMeV][NMeV][NMeV][NMeV][NMeV][NMeF]-NHPhenethyl)
growth inhibition (GI) [3]: inactive
growth inhibition (GI) [4]: inactive
growth inhibition (GI) [5]: inactive
growth inhibition (GI) [6]: inactive
growth inhibition (GI) [7]: inactive
growth inhibition (GI) [8]: inactive

IC50 [1]: 1.4 to 2.1 µg/mL (≈ 2.33 to 3.49 µM)
Compound: CC(C)C[C@@H](N)C(=O)N[C@@H](CC(C)C)C(=O)N(C)[C@@H](CC(C)C)C(=O)N(C)[C@@H](CC(C)C)C(=O)NCCc1ccccc1

IC50 [1]: 3 µg/mL (≈ 5.19 µM)
Compound: CN[C@H](C(=O)N(C)[C@H](C(=O)N(C)[C@H](C(=O)N(C)[C@@H](CS)C(=O)NCCc1ccccc1)C(C)C)C(C)C)C(C)C (H-[NMeV][NMeV][NMeV][NMeC]-NHPhenethyl)

Compound: CN[C@H](C(=O)N(C)[C@H](C(=O)N(C)[C@H](C(=O)N(C)[C@H](C(=O)N(C)[C@H](C(=O)N(C)[C@@H](CC(C)C)C(=O)NCCc1ccccc1)C(C)C)C(C)C)C(C)C)C(C)C)C(C)C (H-[NMeV][NMeV][NMeV][NMeV][NMeV][NMeL]-NHPhenethyl)
growth inhibition (GI) [3]: inactive
growth inhibition (GI) [4]: inactive
growth inhibition (GI) [5]: inactive
growth inhibition (GI) [6]: inactive
growth inhibition (GI) [7]: inactive
growth inhibition (GI) [8]: inactive

Compound: CN[C@H](C(=O)N(C)[C@H](C(=O)N(C)[C@H](C(=O)N(C)[C@H](C(=O)N(C)[C@H](C(=O)N(C)[C@H](C(=O)NCCc1ccccc1)C(C)C)C(C)C)C(C)C)C(C)C)C(C)C)C(C)C (H-[NMeV][NMeV][NMeV][NMeV][NMeV][NMeV]-NHPhenethyl)
Activity [1]: Active
growth inhibition (GI) [3]: inactive
growth inhibition (GI) [4]: inactive
growth inhibition (GI) [5]: inactive
growth inhibition (GI) [6]: inactive
growth inhibition (GI) [7]: inactive
growth inhibition (GI) [8]: inactive

IC50 [1]: 17.5 µg/mL (≈ 27.8 µM)
Compound: CN[C@@H](CC(C)C)C(=O)N(C)[C@@H](CC(C)C)C(=O)N(C)[C@H](CC(C)C)C(=O)N(C)[C@@H](CC(C)C)C(=O)NCCc1ccccc1
